Test results published in patent US20240010620A1, “ARYLAZABICYCLO[2.1.1]HEXYLMETHANOLS DERIVATIVES AND MEDICAL USES THEREOF” (ATROGI AB, priority 2020, published 2024).

Assays:
Type in all cases: cell-based
L6-myotubes [1] = experiment: Glucose uptake in differentiated L6-myotubes (3H-2-deoxy-glucose); settings: agonist final concentration 1×10^−5, 3H-2-deoxy-glucose uptake
Protocol: L6-myoblasts were grown in Dulbecco's Modified Eagle's Medium (DMEM) containing 4,5 g/I glucose supplemented with 10% fetal bovine serum, 2 mM L-Glutamine, 50 U/ml penicillin, 50 μg/ml streptomycin and 10 mM HEPES. Cells were plated at 1×10^5 cells per ml in 24-well plates. After reaching 90% confluence the cells were grown in medium containing 2% FBS for 7 days where upon cells differentiated into myotubes. Differentiated L6-myotubes were serum-starved over night in medium containing 0.5% fatty-acid free BSA and stimulated with agonist, final concentration 1×10^−5. After 1 h 40 min cells were washed with warm, glucose free medium or PBS and another portion of agonist was added to glucose free medium. After 20 min the cells were exposed to 50 nM ^3H-2-deoxy-glucose for another 10 min before washed in ice cold glucose free medium or PBS and lysed in 0.2 M NaOH for 1 h in 60° C.

L6-myotubes [2] = experiment: Measurement of intracellular cAMP levels (alpha screen cAMP kit); settings: differentiated cells; agonist final concentration 1×10^−5, 15 min; 1 mM IBMX
Protocol: L6-myoblasts were grown in Dulbecco's Modified Eagle's Medium (DMEM) containing 4,5 g/I glucose supplemented with 10% fetal bovine serum, 2 mM L-Glutamine, 50 U/ml penicillin, 50 μg/ml streptomycin and 10 mM HEPES. Cells were plated at 1×10^5 cells per ml in 24-well plates. After reaching 90% confluence the cells were grown in medium containing 2% FBS for 7 days where upon cells differentiated into myotubes. Differentiated cells were serum-starved over night and stimulated with agonist, final concentration 1×10^−5, for 15 min in stimulation buffer (HBSS supplemented with 1% BSA, 5 mM HEPES and 1 mM IBMX, pH 7.4) The medium was then aspirated and to end the reaction 100 μL of 95% EtOH was added to each well of a 24-well plate and cells were kept in −20° C. over night. The EtOH was let to evaporate and 500 μL of lysis buffer (1% BSA, 5 mM HEPES and 0.3% Tween-20, pH 7.4) was added to each well before put in −80° C. for 30 min and then kept in −20° C. Intracellular cAMP levels were detected using an alpha screen cAMP kit (6760635D from Perkin Elmer). The activity for each compound is compared to that of isoproterenol.

L6-myotubes [3] = experiment: Glucose uptake in the presence of the β2-adrenergic receptor antagonist ICI-118,551; settings: differentiated L6-myotubes; compound 1×10^−5 M; ICI-118,551 1×10^−5 M
Protocol: L6-myoblasts were grown in Dulbecco's Modified Eagle's Medium (DMEM) containing 4,5 g/I glucose supplemented with 10% fetal bovine serum, 2 mM L-Glutamine, 50 U/ml penicillin, 50 μg/ml streptomycin and 10 mM HEPES. Cells were plated at 1×10^5 cells per ml in 24-well plates. After reaching 90% confluence the cells were grown in medium containing 2% FBS for 7 days where upon cells differentiated into myotubes. Differentiated L6-myotubes were serum-starved overnight in medium containing 0.5% fatty-acid free BSA and were incubated with the β2-adrenergic receptor antagonist ICI-118,551 at a final concentration of 1×10^−5 M for 30 min. The cells were stimulated with a compound of the invention, at a final concentration of 1×10^−5 M. After 1 h 40 min the cells were washed twice with warm, glucose free medium or PBS and additional portions of the compound of the invention and the antagonist were added. After 20 min the cells were exposed to 50 nM ^3H-2-deoxyglucose for 10 min before washed with ice cold glucose free medium or PBS three times and lysed with 0.2 M NaOH, 400 μL/well, for 1 h at 60° C. The cell lysate was mixed with 4 mL scintillation buffer (Emulsifier Safe, Perkin Elmer) and the radioactivity was detected in a β-counter (Tri-Carb 4810TR, Perkin Elmer). The activity for each compound is compared to that of isoproterenol.

| SMILES | Biological example 1: glucose uptake, activity compared to that of isoproterenol (L6-myotubes [1]) | Biological example 2: intracellular cAMP levels, activity compared to that of isoproterenol (L6-myotubes [2]) | Biological example 3: glucose uptake in the presence of ICI-118,551, activity compared to that of isoproterenol (L6-myotubes [3]) |
| --- | --- | --- | --- |
| CC12CC(C1)[C@H]([C@@H](O)c1cccc(N)c1F)N2.Cl [Example 19, (S)-(3-Amino-2-fluorophenyl)((R)-1-methyl-2-azabicyclo[2.1.1]hexan-3-yl)methanol hydrochloride] | ++ (between 75 and 50%) | − (less than 25%) | – |
| CC12CC(C1)[C@H]([C@@H](O)c1cncc(F)c1)N2 [Example 15, (S)-(5-Fluoropyridin-3-yl)((R)-1-methyl-2-azabicyclo[2.1.1]hexan-3-yl)-methanol] | − (less than 25%) | − (less than 25%) | – |
| CC12CC(C1)[C@@H]([C@H](O)c1ccccc1F)N2.Cl [Example 12, (R)-(2-Fluorophenyl)((S)-1-methyl-2-azabicyclo[2.1.1]hexan-3-yl)methanol hydrochloride] | +++ (activity of more than 75% of that of isoproterenol) | − (less than 25%) | – |
| CC12CC(C1)[C@@H]([C@H](O)c1cccc(Cl)c1)N2.Cl [Example 8, (R)-(3-Chlorophenyl)((S)-1-methyl-2-azabicyclo[2.1.1]hexan-3-yl)methanol hydrochloride] | + (between 50 and 25%) | − (less than 25%) | – |
| CC12CC(C1)[C@H]([C@H](O)c1cccc(N)c1F)N2.Cl [Example 17, (R)-(3-Amino-2-fluorophenyl)((R)-1-methyl-2-azabicyclo[2.1.1]hexan-3-yl)methanol hydrochloride] | +++ (activity of more than 75% of that of isoproterenol) | − (less than 25%) | – |
| CC12CC(C1)[C@@H]([C@@H](O)c1cncc(F)c1)N2 [Example 14, (S)-(5-Fluoropyridin-3-yl)((S)-1-methyl-2-azabicyclo[2.1.1]hexan-3-yl)-methanol] | ++ (between 75 and 50%) | − (less than 25%) | – |
| CC12CC(C1)[C@H]([C@@H](O)c1cccc(Cl)c1)N2.Cl [Example 7, (S)-(3-Chlorophenyl)((R)-1-methyl-2-azabicyclo[2.1.1]hexan-3-yl)methanol hydrochloride] | ++ (between 75 and 50%) | − (less than 25%) | – |
| CC12CC(C1)[C@@H]([C@H](O)c1cccc(F)c1)N2.Cl [Example 4, (R)-(3-Fluorophenyl)((S)-1-methyl-2-azabicyclo[2.1.1]hexan-3-yl)methanol hydrochloride] | − (less than 25%) | − (less than 25%) | – |
| CC12CC(C1)[C@@H]([C@@H](O)c1cccc(F)c1)N2.Cl [Example 2, (S)-(3-Fluorophenyl)((S)-1-methyl-2-azabicyclo[2.1.1]hexan-3-yl)methanol hydrochloride] | ++ (between 75 and 50%) | − (less than 25%) | – |
| CC12CC(C1)[C@H]([C@@H](O)c1cccc(F)c1)N2.Cl [Example 3, (S)-(3-Fluorophenyl)((R)-1-methyl-2-azabicyclo[2.1.1]hexan-3-yl)methanol hydrochloride] | + (between 50 and 25%) | − (less than 25%) | – |
| CC12CC(C1)[C@@H]([C@@H](O)c1cccc(N)c1F)N2.Cl [Example 18, (S)-(3-Amino-2-fluorophenyl)((S)-1-methyl-2-azabicyclo[2.1.1]hexan-3-yl)methanol hydrochloride] | ++ (between 75 and 50%) | − (less than 25%) | – |
| CC12CC(C1)[C@H]([C@H](O)c1cccc(F)c1)N2.Cl [Example 1, (R)-(3-Fluorophenyl)((R)-1-methyl-2-azabicyclo[2.1.1]hexan-3-yl)methanol hydrochloride] | +++ (activity of more than 75% of that of isoproterenol) | ++ (between 75 and 50%) | – |
| CC12CC(C1)[C@@H]([C@@H](O)c1cccc(Cl)c1)N2.Cl [Example 6, (S)-(3-Chlorophenyl)((S)-1-methyl-2-azabicyclo[2.1.1]hexan-3-yl)methanol hydrochloride] | + (between 50 and 25%) | − (less than 25%) | – |
| CC12CC(C1)[C@H]([C@H](O)c1cccc(Cl)c1)N2.Cl [Example 5, (R)-(3-Chlorophenyl)((R)-1-methyl-2-azabicyclo[2.1.1]hexan-3-yl)methanol hydrochloride] | +++ (activity of more than 75% of that of isoproterenol) | − (less than 25%) | – |
| CC12CC(C1)[C@H]([C@H](O)c1cncc(F)c1)N2 [Example 13, (R)-(5-Fluoropyridin-3-yl)((R)-1-methyl-2-azabicyclo[2.1.1]hexan-3-yl)-methanol] | +++ (activity of more than 75% of that of isoproterenol) | − (less than 25%) | – |
| CC12CC(C1)[C@H]([C@@H](O)c1ccccc1F)N2.Cl [Example 11] | +++ (activity of more than 75% of that of isoproterenol) | − (less than 25%) | − (less than 25%) |
| CC12CC(C1)[C@@H]([C@H](O)c1cncc(F)c1)N2 [Example 16, (R)-(5-Fluoropyridin-3-yl)((S)-1-methyl-2-azabicyclo[2.1.1]hexan-3-yl)-methanol] | + (between 50 and 25%) | − (less than 25%) | – |
| CC12CC(C1)[C@@H]([C@H](O)c1cccc(N)c1F)N2.Cl [Example 20, (R)-(3-Amino-2-fluorophenyl)((S)-1-methyl-2-azabicyclo[2.1.1]hexan-3-yl)methanol hydrochloride] | ++ (between 75 and 50%) | − (less than 25%) | – |
| CC12CC(C1)[C@H]([C@H](O)c1ccccc1F)N2.Cl [Example 9, (R)-(2-Fluorophenyl)((R)-1-methyl-2-azabicyclo[2.1.1]hexan-3-yl)methanol hydrochloride] | +++ (activity of more than 75% of that of isoproterenol) | +++ (activity of more than 75% of that of isoproterenol) | – |
| CC12CC(C1)[C@@H]([C@@H](O)c1ccccc1F)N2.Cl [Example 10, (S)-(2-Fluorophenyl)((S)-1-methyl-2-azabicyclo[2.1.1]hexan-3-yl)methanol hydrochloride] | +++ (activity of more than 75% of that of isoproterenol) | − (less than 25%) | – |
